# Data as given in US20250032477A1, “COMPOUNDS, PHARMACEUTICAL COMPOSITIONS, AND METHODS FOR THE TREATMENT, PREVENTION, OR MANAGEMENT OF HYPERPROLIFERATIVE DISORDERS” (VINCERX PHARMA GMBH, priority 2021, published 2025).
# pIC50: −log10 of the molar value. Like-named read-outs stand apart in the source and are kept apart here.
# What was measured:
# [1] = system: NCI H292; assay: Cytotoxicity in vitro in the presence and absence of elastase (MTT); assay type: cell-based, human; details: Homo sapiens, NCI H292 cells, 72 h, MTT
# Experimental: (§1) Cultivation of cells was performed according to standard procedures with the media recommended by the provider. The cells, in a total volume of 100 μL, were seeded in a 96-well plate with a white bottom (#3610). After a 24 h incubation period at 37° C. and […], the medium was exchanged by adding 90 μL fresh medium. The treatment started by adding the test compound in 10 μL of culture medium to the cells in triplicates. Concentrations ranging from 10^−5 M to 10^−13 M were chosen. Two identically treated sets of samples were prepared. One set was treated with the test compound alone, whereas to the second set the compound and 10 nM elastase was added followed by a 72 h incubation period at 37° C. and 5% CO2. The proliferation was detected using the MTT assay (ATCC). At the end of the incubation period the MTT reagent was added to all samples for 4 h. Lysis of the cells followed by addition of the detergent was done overnight. The formed dye was detected at 570 nm. The proliferation of untreated but otherwise identically handled cells was define as the […].
# [2] = system: HT29; assay: as above; assay type: cell-based, human; details: Homo sapiens, HT-29, HT29 cells, 72 h, MTT
# Experimental: as §1
# [3] = system: 786-O; assay: as above; assay type: cell-based, human; details: Homo sapiens, 786-0, 786-O cells, 72 h, MTT
# Experimental: as §1
# [4] = in vitro; details: human, Caco-2
# Experimental: Caco-2: The cell permeability of a substance can be investigated by means of in vitro testing in a flux assay using Caco-2 cells [M. D. Troutman and D. R. Thakker, Pharm. Res. 20 (8), 1210-1224 (2003)]. For this purpose, the cells were cultured for 15-16 days on 24-well filter plates. For the determination of permeation, the respective test substance was applied in a HEPES buffer to the cells either apically (A) or basally (B) and incubated for 2 hours. After 0 hours and after 2 hours, samples were taken from the cis and trans compartments. The samples were separated by HPLC (Agilent 1200, Böblingen, Germany) using reverse phase columns. The HPLC system was coupled via a Turbo Ion Spray Interface to a Triple Quadropol mass spectrometer API 4000 (AB SCIEX Deutschland GmbH, Darmstadt, Germany). The permeability was evaluated on the basis of a Papp value, which was calculated using the formula published by Schwab et al. [D. Schwab et al., J. Med. Chem. 46, 1716-1725 (2003)]. A substance was classified as actively transported when the ratio of Papp (B-A) to Papp (A-B) (efflux ratio) was >2 or <0.5. Compounds with an efflux ratio of 0.5-2 are considered not actively transported. In Table 5, reference compounds are provided for comparison. Ref 1 is exatecan mesylate, Ref 2 is DXd, and Ref 3 is 10,11-methylenedioxy-camptothecin (FL118).
# [5] = system: SUM149; assay: Cytotoxicity in vitro in the presence and absence of elastase (MTT); assay type: cell-based; details: SUM149 cells, 72 h, MTT
# Experimental: as §1
# [6] = with 10 nM elastase, read-out: NCI H292 IC 50 w elastase
# [7] = without elastase, read-out: NCI H292 IC 50 w/o
# [8] = with 10 nM elastase, read-out: HT29 IC50 w elastase
# [9] = without elastase, read-out: HT29 IC50 w/o
# [10] = with 10 nM elastase, read-out: 786-O IC50 w elastase
# [11] = without elastase, read-out: 786-O IC50 w/o
# [12] = with 10 nM elastase, read-out: SUM149 IC50 w elastase
# [13] = without elastase, read-out: SUM149 IC50 w/o
SMILES,"pIC50 [1, 6]","pIC50 [1, 7]","pIC50 [2, 8]","pIC50 [2, 9]","pIC50 [3, 10]","pIC50 [3, 11]",Papp A→B at 2 h [4] [×10⁻⁶ cm/s],efflux ratio at 2 h [4],"pIC50 [5, 12]","pIC50 [5, 13]"
"CC[C@@]1(O)C(=O)OCc2c1cc1n(c2=O)Cc2c-1nc1cc(F)c(C)c3c1c2[C@@H](NC(C)=O)CC3 [Compound 7, N-[(1S,9S)-9-ethyl-5-fluoro-9-hydroxy-4-methyl-10,13-dioxo-2,3,9,10,13,15-hexahydro-1H,12H-benzo[de]pyrano[3′,4′:6,7]indolizino[1,2-b]quinolin-1-yl]acetamide]",10.00 to 11.00,10.00 to 11.00,10.00 to 11.00,10.00 to 11.00,10.00 to 11.00,10.00 to 11.00,0.1 to 0.9,> 2,> 11.00,> 11.00
"CC[C@@]1(O)C(=O)OCc2c1cc1n(c2=O)Cc2c-1nc1cc(F)c(C)c3c1c2[C@@H](NC(=O)C(F)(F)F)CC3 [Compound 8, N-[(1S,9S)-9-ethyl-5-fluoro-9-hydroxy-4-methyl-10,13-dioxo-2,3,9,10,13,15-hexahydro-1H,12H-benzo[de]pyrano[3′,4′:6,7]indolizino[1,2-b]quinolin-1-yl]-2,2,2-trifluoroacetamide]",10.00 to 11.00,10.00 to 11.00,10.00 to 11.00,10.00 to 11.00,10.00 to 11.00,10.00 to 11.00,1 to 9.9,> 2,> 11.00,> 11.00
"CC[C@@]1(O)C(=O)OCc2c1cc1n(c2=O)Cc2c-1nc1cc(F)c(C)c3c1c2[C@@H](NC(=O)Cc1ccncc1)CC3 [Compound 9, N-[(1S,9S)-9-ethyl-5-fluoro-9-hydroxy-4-methyl-10,13-dioxo-2,3,9,10,13,15-hexahydro-1H,12H-benzo[de]pyrano[3′,4′:6,7]indolizino[1,2-b]quinolin-1-yl]-2-(pyridin-4-yl)acetamide]",9.00 to 10.00,9.00 to 10.00,9.00 to 10.00,8.00 to 8.96,9.00 to 10.00,9.00 to 10.00,0.1 to 0.9,> 2,10.00 to 11.00,10.00 to 11.00
"CCN[C@H]1CCc2c(C)c(F)cc3nc4c(c1c23)Cn1c-4cc2c(c1=O)COC(=O)[C@]2(O)CC.O=C(O)C(F)(F)F [Compound 16, trifluoroacetic acid (1S,9S)-9-ethyl-1-(ethylamino)-5-fluoro-9-hydroxy-4-methyl-1,2,3,9,12,15-hexahydro-10H,13H-benzo[de]pyrano[3′,4′:6,7] indolizino[1,2-b]quinoline-10,13-dione (1/1)]",9.00 to 10.00,9.00 to 10.00,9.00 to 10.00,9.00 to 10.00,9.00 to 10.00,9.00 to 10.00,10 to 99.9,0.5 to 2,10.00 to 11.00,10.00 to 11.00
